Measured values reported in patent publication US11629171B2, “Beta-hairpin peptidomimetics” (POLYPHOR AG, priority 2017, dated 2023).
≈ marks a conversion by molar mass, not a printed value. Where a SMILES comes first, the peptide text is derived from it. Bridges are numbered along the chain shown (N, C = ends). Roman numbers before positions name the chains, in order. [ ]: non-standard residue; d: D form. Thr(ol) = C[C@@H](O)[C@H](N)CO; Tle = CC(C)(C)[C@H](N)C(=O)O; NMeV = CN[C@H](C(=O)O)C(C)C; Hiv = CC(C)[C@H](O)C(=O)O; dDab = NCC[C@@H](N)C(=O)O; hSer = N[C@@H](CCO)C(=O)O; Orn = NCCC[C@H](N)C(=O)O; Dab = NCC[C@H](N)C(=O)O; Dap = NC[C@H](N)C(=O)O

Columns and labels:
Type in all cases: cell-based
[1] = test system: human red blood cells (hRBC); experiment: Hemolysis; conditions: red cells of human, 1 h, 200
Description: The peptides were tested for their hemolytic activity against human red blood cells (hRBC). Fresh hRBC were washed four times with phosphate buffered saline (PBS) and centrifuged for 10 min at 3000×g. Compounds (200 μg/mL) were incubated with 20% hRBC (v/v) for 1 h at 37° C. and shaking at 300 rpm. A value of 0% and 100% cell lysis, respectively, was determined by incubation of hRBC in the presence of PBS containing 10% water and 2% Triton X-100 in H2O, respectively. The samples were centrifuged, the supernatants were ˜7.5-fold diluted in PBS buffer and the optical densities (OD) were measured at 540 nm and blank corrected. The 100% lysis value (OD540Triton X-100) gave an OD540 of approximately 0.5-1.0.
Percent hemolysis was calculated as follows: (OD540peptide/OD540Triton X-100)×100%.

[2] = test system: Acinetobacter baumannii DSM 30008; conditions: DSM 30008
Description: (§1) The in vitro antimicrobial activities of the peptides were determined in 96-well plates (Greiner, polystyrene) by the standard CLSI broth microdilution method (Clinical and Laboratory Standards Institute 2014. Performance standards for antimicrobial susceptibility testing, 24th informational supplement. Approved standard CLSI M100-S24; Clinical and Laboratory Standards Institute, Wayne, Pa.). The following microorganisms were used to determine antibiotic activity of the peptides: Escherichia coli ATCC 25922, Klebsiella pneumoniae SSI #3010^a), Acinetobacter baumannii DSM 30008, Pseudomonas aeruginosa ATCC 27853 and the clinical isolates Escherichia coli 926415^b), Klebsiella pneumoniae 968733^b), Acinetobacter baumannii 872842^b), Enterobacter cloacae 848840^b) and Escherichia coli MCR-1 Af45^c). Before preparation of inocula, Escherichia coli MCR-1 Af45 was subcultured on Mueller-Hinton II (MH-cation adjusted) agar containing 2 μg/mL colistin. ^a) Obtained from Statens Serum Institut (SSI), Copenhagen, Denmark^b) Obtained from International Health Management Associates, Inc. (IHMA Europe Sàrl), Epalinges, Switzerland^c) Obtained from Prof. Patrice Nordmann, University of Fribourg, Fribourg, Switzerland
(§2) Inocula of the microorganisms were diluted into Mueller-Hinton II (MH-cation adjusted) broth and compared with a 0.5 McFarland standard to give appr. 10^6 colony forming units (CFU)/mL. Aliquots (90 μL) of inoculum were added to 10 μL of MH-II broth+P-80 (Polysorbate 80, 0.002% final concentration, v/v) containing the peptide in serial two-fold dilutions. Antimicrobial activities of the peptides were expressed as the minimal inhibitory concentration (MIC) in μg/mL at which no visible growth was observed after 18-20 hours of incubation at 35° C.

[3] = test system: Klebsiella pneumoniae 968733; conditions: 968733
Description: as §1, §2

[4] = test system: Pseudomonas aeruginosa ATCC 27853; conditions: ATCC 27853
Description: as §1, §2

[5] = test system: Acinetobacter baumannii 872842; conditions: 872842
Description: as §1, §2

[6] = test system: Escherichia coli ATCC 25922; conditions: ATCC 25922
Description: as §1, §2

[7] = test system: Klebsiella pneumoniae SSI #3010; conditions: SSI #3010
Description: as §1, §2

[8] = test system: Enterobacter cloacae 848840; conditions: 848840
Description: as §1, §2

[9] = test system: Escherichia coli 926415; conditions: 926415
Description: as §1, §2

SMILES | Hemolysis at 200 μg/mL [1] [%] | MIC [2] [mg/L] | MIC [3] [mg/L] | MIC [4] [mg/L] | MIC [5] [mg/L] | MIC [6] [mg/L] | MIC [7] [mg/L] | MIC [8] [mg/L] | MIC [9] [mg/L]
CN[C@H](C(=O)N[C@H](C(=O)N[C@@H](Cc1ccc(O)cc1)C(=O)N[C@H]1CSSC[C@@H](C(=O)N[C@H](C(=O)N[C@@H](CO)C(N)=O)C(C)C)NC(=O)[C@H](Cc2c[nH]c3ccccc23)NC(=O)[C@H](CCO)NC(=O)[C@@H](CCN)NC(=O)[C@H](CCC(=O)N[C@@H](CCN)C(=O)N[C@H](C(=O)N[C@@H](CCN)C(=O)N[C@H]2CCNC(=O)[C@H]([C@@H](C)O)NC(=O)[C@H](CCN)NC(=O)[C@H](CCN)NC(=O)[C@H](CC(C)C)NC(=O)[C@@H](CC(C)C)NC(=O)[C@H](CCN)NC2=O)[C@@H](C)O)NC1=O)[C@@H](C)O)C(C)C [Ex. 12] (I: H-[NMeV]TYCE[dDab][hSer]WCVS-NH2 / II: [Dab]T[Dab][Dab][Dab][dL]L[Dab][Dab]T; disulfide I:4-I:9; amide I:5-II:N; lactam II:4-II:C) | 2 | 0.125 (≈ 0.054 µM) | 4 (≈ 1.73 µM) | 0.125 (≈ 0.054 µM) | 1 (≈ 0.432 µM) | 0.0625 (≈ 0.027 µM) | 0.25 (≈ 0.108 µM) | 0.5 (≈ 0.216 µM) | 1 (≈ 0.432 µM)
CC(=O)N[C@H](C(=O)N[C@H]1CCCNC(=O)[C@@H]([C@H](C)O)NC(=O)[C@H](C(C)(C)C)NC(=O)[C@H](CO)NC(=O)[C@H](Cc2c[nH]c3ccccc23)NC(=O)[C@H](CCO)NC(=O)[C@@H](CCN)NC(=O)[C@H](CCC(=O)N[C@@H](CCN)C(=O)N[C@H](C(=O)N[C@@H](CCN)C(=O)N[C@H]2CCNC(=O)[C@H]([C@@H](C)O)NC(=O)[C@H](CCN)NC(=O)[C@H](CCN)NC(=O)[C@H](CC(C)C)NC(=O)[C@@H](CC(C)C)NC(=O)[C@H](CCN)NC2=O)[C@@H](C)O)NC(=O)[C@H](CCN)NC(=O)[C@H](Cc2ccc(O)cc2)NC1=O)C(C)C [Ex. 15] (I: Ac-V[Orn]Y[Dab]E[dDab][hSer]WS[Tle][dT] / II: [Dab]T[Dab][Dab][Dab][dL]L[Dab][Dab]T; lactam I:2-I:C, II:4-II:C; amide I:5-II:N) | <1 | 0.125 (≈ 0.0532 µM) | 0.25 (≈ 0.106 µM) | 0.25 (≈ 0.106 µM) | 0.25 (≈ 0.106 µM) | 0.0625 (≈ 0.0266 µM) | 0.125 (≈ 0.0532 µM) | 0.125 (≈ 0.0532 µM) | 0.25 (≈ 0.106 µM)
CC(=O)N[C@H](C(=O)N[C@H]1CCCNC(=O)[C@@H]([C@H](C)O)NC(=O)[C@H](C(C)(C)C)NC(=O)[C@H](CO)NC(=O)[C@H](Cc2c[nH]c3ccccc23)NC(=O)[C@H](CCO)NC(=O)[C@@H](CCN)NC(=O)[C@H](CCC(=O)N[C@@H](CCN)C(=O)N[C@H](C(=O)N[C@@H](CN)C(=O)N[C@H]2CCNC(=O)[C@H]([C@@H](C)O)NC(=O)[C@H](CCN)NC(=O)[C@H](CCN)NC(=O)[C@H](CC(C)C)NC(=O)[C@@H](CC(C)C)NC(=O)[C@H](CCN)NC2=O)[C@@H](C)O)NC(=O)[C@H](CCN)NC(=O)[C@H](Cc2ccc(O)cc2)NC1=O)C(C)C [Ex. 16] (I: Ac-V[Orn]Y[Dab]E[dDab][hSer]WS[Tle][dT] / II: [Dab]T[Dap][Dab][Dab][dL]L[Dab][Dab]T; lactam I:2-I:C, II:4-II:C; amide I:5-II:N) | <1 | 0.0625 (≈ 0.0268 µM) | 0.125 (≈ 0.0536 µM) | 0.25 (≈ 0.107 µM) | 0.25 (≈ 0.107 µM) | 0.0625 (≈ 0.0268 µM) | 0.0625 (≈ 0.0268 µM) | 0.25 (≈ 0.107 µM) | 0.25 (≈ 0.107 µM)
CC(=O)N[C@H](C(=O)N[C@H]1CCCNC(=O)[C@@H]([C@H](C)O)NC(=O)[C@H](C(C)(C)C)NC(=O)[C@H](CO)NC(=O)[C@H](Cc2c[nH]c3ccccc23)NC(=O)[C@H](CCO)NC(=O)[C@@H](CCN)NC(=O)[C@H](CCC(=O)N[C@@H](CCN)C(=O)N[C@H](C(=O)N[C@@H](CN)C(=O)N[C@H]2CCNC(=O)[C@H]([C@@H](C)O)NC(=O)[C@H](CCN)NC(=O)[C@H](CCN)NC(=O)[C@H](CC(C)C)NC(=O)[C@@H](CC(C)C)NC(=O)[C@H](CCN)NC2=O)[C@@H](C)O)NC(=O)[C@H]([C@@H](C)O)NC(=O)[C@H](Cc2ccc(O)cc2)NC1=O)C(C)C [Ex. 17] (I: Ac-V[Orn]YTE[dDab][hSer]WS[Tle][dT] / II: [Dab]T[Dap][Dab][Dab][dL]L[Dab][Dab]T; lactam I:2-I:C, II:4-II:C; amide I:5-II:N) | <1 | 0.0625 (≈ 0.0268 µM) | 0.5 (≈ 0.214 µM) | 0.25 (≈ 0.107 µM) | 0.125 (≈ 0.0535 µM) | 0.0625 (≈ 0.0268 µM) | 0.125 (≈ 0.0535 µM) | 0.25 (≈ 0.107 µM) | 0.5 (≈ 0.214 µM)
CC(C)C[C@@H]1NC(=O)[C@@H](CC(C)C)NC(=O)[C@H](CCN)NC(=O)[C@@H](NC(=O)[C@H](CN)NC(=O)[C@@H](NC(=O)[C@H](CCN)NC(=O)CC[C@H]2NC(=O)[C@@H](CCN)NC(=O)[C@H](CCCN)NC(=O)[C@H](CCN)NC(=O)[C@H](Cc3ccc(O)cc3)NC(=O)[C@@H](NC(=O)[C@@H](O)C(C)C)CSSC[C@@H](C(=O)N[C@H](C(N)=O)[C@@H](C)O)NC(=O)[C@H](C(C)(C)C)NC(=O)[C@H](CO)NC(=O)[C@H](Cc3c[nH]c4ccccc34)NC2=O)[C@@H](C)O)CCNC(=O)[C@H]([C@@H](C)O)NC(=O)[C@H](CCN)NC(=O)[C@H](CCN)NC1=O [Ex. 169] (I: H-[Hiv]CY[Dab][Orn][dDab][dE]WS[Tle]CT-NH2 / II: [Dab]T[Dap][Dab][Dab][dL]L[Dab][Dab]T; disulfide I:2-I:11; amide I:7-II:N; lactam II:4-II:C) | <1 | 0.25 (≈ 0.104 µM) | 4 (≈ 1.66 µM) | 0.25 (≈ 0.104 µM) | 1 (≈ 0.414 µM) | 0.25 (≈ 0.104 µM) | 0.5 (≈ 0.207 µM) |  | 0.5 (≈ 0.207 µM)
CC(C)C[C@@H]1NC(=O)[C@@H](CC(C)C)NC(=O)[C@H](CCN)NC(=O)[C@@H](NC(=O)[C@H](CN)NC(=O)[C@@H](NC(=O)[C@H](CCN)NC(=O)CC[C@H]2NC(=O)CNC(=O)[C@H](CCCN)NC(=O)[C@H](CCN)NC(=O)[C@H](Cc3ccc(O)cc3)NC(=O)[C@@H](NC(=O)[C@@H](O)C(C)C)CSSC[C@@H](C(=O)N[C@H](C(N)=O)[C@@H](C)O)NC(=O)[C@H](C(C)(C)C)NC(=O)[C@H](CO)NC(=O)[C@H](Cc3c[nH]c4ccccc34)NC2=O)[C@@H](C)O)CCNC(=O)[C@H]([C@@H](C)O)NC(=O)[C@H](CCN)NC(=O)[C@H](CCN)NC1=O [Ex. 170] (I: H-[Hiv]CY[Dab][Orn]G[dE]WS[Tle]CT-NH2 / II: [Dab]T[Dap][Dab][Dab][dL]L[Dab][Dab]T; disulfide I:2-I:11; amide I:7-II:N; lactam II:4-II:C) | <1 | 0.25 (≈ 0.105 µM) | 2 (≈ 0.844 µM) | 0.5 (≈ 0.211 µM) | 2 (≈ 0.844 µM) | 0.125 (≈ 0.0527 µM) | 0.5 (≈ 0.211 µM) |  | 0.5 (≈ 0.211 µM)
CC(C)C[C@@H]1NC(=O)[C@@H](CC(C)C)NC(=O)[C@H](CCN)NC(=O)[C@@H](NC(=O)[C@H](CN)NC(=O)[C@@H](NC(=O)[C@H](CCN)NC(=O)CC[C@@H]2NC(=O)[C@H](CCCN)NC(=O)[C@@H](NC(=O)[C@H](Cc3ccc(O)cc3)NC(=O)[C@@H](NC(=O)[C@@H](O)C(C)C)[C@@H](C)O)CSSC[C@@H](C(=O)N[C@H](C(=O)N[C@@H](C)C(=O)N[C@H](CO)[C@@H](C)O)C(C)(C)C)NC(=O)[C@H](Cc3c[nH]c4ccccc34)NC(=O)[C@H]([C@@H](C)O)NC2=O)[C@@H](C)O)CCNC(=O)[C@H]([C@@H](C)O)NC(=O)[C@H](CCN)NC(=O)[C@H](CCN)NC1=O [Ex. 209] (I: H-[Hiv]TYC[Orn]ETWC[Tle]A[Thr(ol)] / II: [Dab]T[Dap][Dab][Dab][dL]L[Dab][Dab]T; disulfide I:4-I:9; amide I:6-II:N; lactam II:4-II:C) | <1 | 0.25 (≈ 0.105 µM) | 4 (≈ 1.68 µM) | 0.5 (≈ 0.21 µM) | 2 (≈ 0.838 µM) | 0.125 (≈ 0.0524 µM) | 0.25 (≈ 0.105 µM) |  | 1 (≈ 0.419 µM)
